# Literature values, collected in patent US11122832B2, “Methods and compositions to improve weight loss and cardiometabolic health beyond diet and excercise” (Nature's Sunshine Products, Inc., priority 2016, dated 2021).
# Where two headings read alike, the source gives them in different places.
# How the values were obtained:
# [1] = not given; remark: listed apart in the source
# [2] = system: plasma concentration of NOx; conditions: 6 g, over 120 minutes, healthy individuals with normal plasma ADMA
compound,measurement,setting,value
"O=NO [NO2, nitrite]",filtered amount reabsorbed in the renal tubules,estimated,96%
C[C@H]1CNCCc2ccc(Cl)cc21 [Lorcaserin],Responders (5% weight loss),"[1]; Evaluation 12 weeks, BID 10 mg, placebo 12%",36%
same,≥10% weight loss responders,"[1]; Period 56 weeks, placebo 9%",22%
same,≥5% weight loss responders,"[1]; Period 56 weeks, placebo 23%",47%
N=C(N)NCCC[C@H](N)C(=O)O [L-arginine],plasma concentration of NOx after acute supplementation,[2],does not increase
"O=[N+]([O-])O [NO3, nitrate]",bioavailability of dietary NO3,dietary (oral),100%
same,clearance from blood to urine,in adults,approximately 20 mL/min
same,time to peak plasma concentration,orally consumed,approximately 1 hour
same,half-life of plasma NO3,plasma,5 to 8 h
CCCCCCCCCCC[C@@H](C[C@@H]1OC(=O)[C@H]1CCCCCC)OC(=O)[C@H](CC(C)C)NC=O [Orlistat],≥5% weight loss responders,[1]; Period 24 weeks,42%
same,≥10% weight loss responders,[1]; Period 24 weeks,15%
same,≥5% weight loss responders,"[1]; Period 24 weeks, listed as orlistat",42%
"[N]=O [NO, Nitric oxide]",half-life of NO once produced through NOS,in vivo,approximately 1 second
